{
  "source": "patent US8232401B2",
  "about": "(Japan Tobacco Inc., priority 2002, dated 2012)",
  "biological_target": "T1, HIV integrase (Human immunodeficiency virus type 1 group M subtype B, UniProt P12497, F1332H)",
  "T1 construct": "HIV integrase full length gene; made in house; host or cells: Escherichia coli BL21(DE3)",
  "assay": "Determination of enzyme (HIV integrase) inhibitory activity (strand transfer, microtiter plate, absorbance at 450 nm)",
  "type": "biochemical, HIV (Human Immunodeficiency Virus (type 1))",
  "details": "recombinant HIV integrase (F185H) expressed in E. coli; donor DNA on streptavidin plate, digoxigenin target DNA; 37° C.",
  "experimental": "The following explains evaluation methods of the HIV integrase inhibitory activity of the compound of the present invention.\n(i) Construction of Recombinant Integrase Gene Expression System\n(ii) Production and Purification of Integrase Protein\nEscherichia coli recombinant BL21(DE3) transformed with plasmid pET21a-IN-F185H obtained in (i) was shake cultured at 30° C. in a liquid medium containing ampicillin. When the culture reached the logarithmic growth phase, isopropyl-β-D-thiogalactopyranoside was added to promote expression of integrase gene. The culture was continued for 3 hrs to promote accumulation of the integrase protein. The recombinant E. coli was collected in pellets by centrifugal separation and preserved at −80° C.\nThe E. coli was suspended in Lysis buffer (20 mM HEPES (pH 7.5), 5 mM DTT, 10 mM CHAPS, 10% glycerol) containing 1M sodium chloride and subjected to repeat pressurization and depressurization for rupture, and centrifugal separation at 4° C., 40,000×g, 60 min to recover a water-soluble fraction (supernatant). This was diluted 10-fold with Lysis buffer free of sodium chloride, mixed with SP-Sepharose (Pharmacia Corporation) and stirred at 4° C. for 60 min to allow adsorption of integrase protein to the resin. The resin was washed with Lysis buffer containing 100 mM sodium chloride and the integrase protein was eluted with Lysis buffer containing 1M sodium chloride.\nThe eluted integrase protein solution was applied to a Superdex 75 (Pharmacia Corporation) column for gel filtration. The protein was eluted with Lysis buffer containing 1M sodium chloride.\nThe obtained fractions of the integrate protein were collected and preserved at −80° C.\n(iii) Preparation of DNA Solution\nThe following DNA synthesized by Greiner was dissolved in TE buffer (10 mM Tris-hydrochloric acid (pH 8.0), 1 mM EDTA) and mixed with donor DNA, target DNA, each complementary strand (+ and − strands) to 1 μM. The mixture was heated at 95° C. for 5 min, 80° C. for 10 min, 70° C. for 10 min, 60° C. for 10 min, 50° C. for 10 min and 40° C. for 10 min and preserved at 25° C. to give a double stranded DNA, which was used for the test. Donor DNA (− strand having biotin attached to the 5′ terminal)\n(iv) Determination of Enzyme (HIV Integrase) Inhibitory activity\nThe donor DNA was diluted with TE buffer to 10 nM, of which 50 μl was added to each well of streptavidin-coated microtiter plate (Roche) and allowed to adsorb at 37° C. for 60 min. The DNA was washed with phosphate buffer (Dulbecco PBS, Sanko Junyaku Co., Ltd.) containing 0.1% Tween 20 and phosphate buffer. Then, a reaction mixture (70 μl) having the following composition, a test substance (10 μl) diluted with the reaction mixture and […] integrase protein (10 μl) were added to each well and reacted at 37° C. for 60 min.\nThen, 50 nM target DNA (1.0 μl) was added, reacted at 37° C. for 10 min and washed with phosphate buffer containing 0.1% Tween 20 to stop the reaction.\nThen, 100 mU/ml peroxidase labeled anti-digoxigenin antibody solution (Roche, 100 μl) was added, and the mixture was reacted at 37° C. for 60 min, followed by washing with phosphate buffer containing 0.1% Tween 20.\nA peroxidase color solution (Bio Rad, 100 μl) was added and allowed to react at room temperature for 4 min. The color reaction was stopped by adding 1N sulfuric acid (100 μl). The absorbance at 450 nm was measured.\nThe HIV integrase inhibitory activity (IC50) of the compound of the present invention was calculated from the inhibition rate according to the following formula. […] Evaluation of Antiviral Activity",
  "data": [
    {"smiles": "O=C(O)c1cn(CCO)c2c(F)cc(Cc3cccc(Cl)c3Cl)cc2c1=O", "note": "[Example 1-2, 6-(2,3-dichlorobenzyl)-1,4-dihydro-8-fluoro-1-(2-hydroxyethyl)-4-oxo-3-quinolinecarboxylic acid]", "values": [
      {"measurement": "IC50", "result": 33, "unit": "nM"}
    ]},
    {"smiles": "CS(=O)(=O)NCCn1cc(C(=O)O)c(=O)c2cc(Cc3cccc(Cl)c3Cl)ccc21", "note": "[Example 1-3, 6-(2,3-Dichlorobenzyl)-1-(2-methanesulfonylaminoethyl)-4-oxo-1,4-dihydroquinoline-3-carboxylic acid]", "values": [
      {"measurement": "IC50", "result": 360, "unit": "nM"}
    ]},
    {"smiles": "O=C(O)c1cn(CCn2ccnc2)c2ccc(Cc3cccc(Cl)c3Cl)cc2c1=O", "note": "[Example 1-4, 6-(2,3-Dichlorobenzyl)-1-(2-imidazol-1-ylethyl)-4-oxo-1,4-dihydroquinoline-3-carboxylic acid]", "values": [
      {"measurement": "IC50", "result": 240, "unit": "nM"}
    ]},
    {"smiles": "CNC(=O)Cn1cc(C(=O)O)c(=O)c2cc(Cc3cccc(Cl)c3Cl)ccc21", "note": "[Example 1-6, 6-(2,3-Dichlorobenzyl)-1-methylcarbamoylmethyl-4-oxo-1,4-dihydroquinoline-3-carboxylic acid]", "values": [
      {"measurement": "IC50", "result": 140, "unit": "nM"}
    ]},
    {"smiles": "NC(=O)Cn1cc(C(=O)O)c(=O)c2cc(Cc3cccc(Cl)c3Cl)ccc21", "note": "[Example 1-7, 1-Carbamoylmethyl-6-(2,3-Dichlorobenzyl)-4-oxo-1,4-dihydroquinoline-3-carboxylic acid]", "values": [
      {"measurement": "IC50", "result": 67, "unit": "nM"}
    ]},
    {"smiles": "CC(C)n1cc(C(=O)O)c(=O)c2cc(Cc3cccc(Cl)c3Cl)ccc21", "note": "[Example 1-8, 6-(2,3-Dichlorobenzyl)-1-isopropyl-4-oxo-1,4-dihydroquinoline-3-carboxylic acid]", "values": [
      {"measurement": "IC50", "result": 46, "unit": "nM"}
    ]},
    {"smiles": "NS(=O)(=O)Cn1cc(C(=O)O)c(=O)c2cc(Cc3cccc(Cl)c3Cl)ccc21", "note": "[Example 1-9, 6-(2,3-Dichlorobenzyl)-4-oxo-1-sulfamoylmethyl-1,4-dihydroquinoline-3-carboxylic acid]", "values": [
      {"measurement": "IC50", "result": 17, "unit": "nM"}
    ]},
    {"smiles": "O=C(O)CCn1cc(C(=O)O)c(=O)c2cc(Cc3cccc(Cl)c3Cl)ccc21", "note": "[Example 1-10, 1-(2-Carboxyethyl)-6-(2,3-dichlorobenzyl)-4-oxo-1,4-dihydroquinoline-3-carboxylic acid]", "values": [
      {"measurement": "IC50", "result": 72, "unit": "nM"}
    ]},
    {"smiles": "O=C(O)c1cn(CCO)c2ccc(Cc3cccc4ccccc34)cc2c1=O", "note": "[Example 1-11, 1-(2-Hydroxyethyl)-6-naphthalen-1-ylmethyl-4-oxo-1,4-dihydroquinoline-3-carboxylic acid]", "values": [
      {"measurement": "IC50", "result": 180, "unit": "nM"}
    ]},
    {"smiles": "COC(=O)c1cn(CCO)c2ccc(Cc3cccc(Cl)c3Cl)cc2c1=O", "note": "[Example 1-12, 6-(2,3-Dichlorobenzyl)-1-(2-hydroxyethyl)-4-oxo-1,4-dihydroquinoline-3-carboxylic acid methyl ester]", "values": [
      {"measurement": "IC50", "result": 710, "unit": "nM"}
    ]},
    {"smiles": "NC(=O)CCn1cc(C(=O)O)c(=O)c2cc(Cc3cccc(Cl)c3Cl)ccc21", "note": "[Example 1-13, 1-(2-Carbamoylethyl)-6-(2,3-dichlorobenzyl)-4-oxo-1,4-dihydroquinoline-3-carboxylic acid]", "values": [
      {"measurement": "IC50", "result": 140, "unit": "nM"}
    ]},
    {"smiles": "CC(=O)Cn1cc(C(=O)O)c(=O)c2cc(Cc3cccc(Cl)c3Cl)ccc21", "note": "[Example 1-14, 6-(2,3-Dichlorobenzyl)-4-oxo-1-(2-oxopropyl)-1,4-dihydroquinoline-3-carboxylic acid]", "values": [
      {"measurement": "IC50", "result": 75, "unit": "nM"}
    ]},
    {"smiles": "O=C(O)c1cn(Cc2ccccc2)c2ccc(Cc3cccc(Cl)c3Cl)cc2c1=O", "note": "[Example 1-15, 1-Benzyl-6-(2,3-dichlorobenzyl)-4-oxo-1,4-dihydroquinoline-3-carboxylic acid]", "values": [
      {"measurement": "IC50", "result": 230, "unit": "nM"}
    ]},
    {"smiles": "O=C(O)c1cn(CCc2ccccc2)c2ccc(Cc3cccc(Cl)c3Cl)cc2c1=O", "note": "[Example 1-16, 6-(2,3-Dichlorobenzyl)-4-oxo-1-phenethyl-1,4-dihydroquinoline-3-carboxylic acid]", "values": [
      {"measurement": "IC50", "result": 32, "unit": "nM"}
    ]},
    {"smiles": "O=C(O)c1cn(CCCc2ccccc2)c2ccc(Cc3cccc(Cl)c3Cl)cc2c1=O", "note": "[Example 1-17, 6-(2,3-Dichlorobenzyl)-1-(3-phenylpropyl)-4-oxo-1,4-dihydroquinoline-3-carboxylic acid]", "values": [
      {"measurement": "IC50", "result": 84, "unit": "nM"}
    ]},
    {"smiles": "CC(C)Cn1cc(C(=O)O)c(=O)c2cc(Cc3cccc(Cl)c3Cl)ccc21", "note": "[Example 1-18, 6-(2,3-Dichlorobenzyl)-1-isobutyl-4-oxo-1,4-dihydroquinoline-3-carboxylic acid]", "values": [
      {"measurement": "IC50", "result": 120, "unit": "nM"}
    ]},
    {"smiles": "O=C(O)c1cn(CCCCc2ccccc2)c2ccc(Cc3cccc(Cl)c3Cl)cc2c1=O", "note": "[Example 1-19, 6-(2,3-Dichlorobenzyl)-1-(4-phenylbutyl)-4-oxo-1,4-dihydroquinoline-3-carboxylic acid]", "values": [
      {"measurement": "IC50", "result": 81, "unit": "nM"}
    ]},
    {"smiles": "O=C(O)c1cn(Cc2ccccc2-c2ccccc2)c2ccc(Cc3cccc(Cl)c3Cl)cc2c1=O", "note": "[Example 1-20, 1-Biphenyl-2-ylmethyl-6-(2,3-dichlorobenzyl)-4-oxo-1,4-dihydroquinoline-3-carboxylic acid]", "values": [
      {"measurement": "IC50", "result": 690, "unit": "nM"}
    ]},
    {"smiles": "O=C(O)c1cn(CCCCO)c2ccc(Cc3cccc(Cl)c3Cl)cc2c1=O", "note": "[Example 1-21, 6-(2,3-Dichlorobenzyl)-1-(4-hydroxybutyl)-4-oxo-1,4-dihydroquinoline-3-carboxylic acid]", "values": [
      {"measurement": "IC50", "result": 74, "unit": "nM"}
    ]},
    {"smiles": "O=C(O)c1cn(Cc2cc3ccccc3s2)c2ccc(Cc3cccc(Cl)c3Cl)cc2c1=O", "note": "[Example 1-22, 1-Benzo[b]thiophen-2-ylmethyl-6-(2,3-dichlorobenzyl)-4-oxo-1,4-dihydroquinoline-3-carboxylic acid]", "values": [
      {"measurement": "IC50", "result": 110, "unit": "nM"}
    ]},
    {"smiles": "O=C(O)c1cn(Cc2ccc(Cl)c(Cl)c2)c2ccc(Cc3cccc(Cl)c3Cl)cc2c1=O", "note": "[Example 1-23, 6-(2,3-dichlorobenzyl)-1-(3,4-dichlorobenzyl)-4-oxo-1,4-dihydroquinoline-3-carboxylic acid]", "values": [
      {"measurement": "IC50", "result": 190, "unit": "nM"}
    ]},
    {"smiles": "CN(C)CCn1cc(C(=O)O)c(=O)c2cc(Cc3cccc(Cl)c3Cl)ccc21", "note": "[Example 1-24, 6-(2,3-Dichlorobenzyl)-1-(2-dimethylaminoethyl)-4-oxo-1,4-dihydroquinoline-3-carboxylic acid]", "values": [
      {"measurement": "IC50", "result": 290, "unit": "nM"}
    ]},
    {"smiles": "O=C(O)c1cn(CCCO)c2ccc(Cc3cccc(Cl)c3Cl)cc2c1=O", "note": "[Example 1-25, 6-(2,3-Dichlorobenzyl)-1-(3-hydroxypropyl)-4-oxo-1,4-dihydroquinoline-3-carboxylic acid]", "values": [
      {"measurement": "IC50", "result": 160, "unit": "nM"}
    ]},
    {"smiles": "COCCn1cc(C(=O)O)c(=O)c2cc(Cc3cccc(Cl)c3Cl)ccc21", "note": "[Example 1-26, 6-(2,3-Dichlorobenzyl)-1-(2-methoxyethyl)-4-oxo-1,4-dihydroquinoline-3-carboxylic acid]", "values": [
      {"measurement": "IC50", "result": 180, "unit": "nM"}
    ]},
    {"smiles": "O=C(O)c1cn(CC(F)(F)F)c2ccc(Cc3cccc(Cl)c3Cl)cc2c1=O", "note": "[Example 1-27, 6-(2,3-Dichlorobenzyl)-1-(2,2,2-trifluoroethyl)-4-oxo-1,4-dihydroquinoline-3-carboxylic acid]", "values": [
      {"measurement": "IC50", "result": 76, "unit": "nM"}
    ]},
    {"smiles": "O=C(O)Cn1cc(C(=O)O)c(=O)c2cc(Cc3cccc(Cl)c3Cl)ccc21", "note": "[Example 1-28, 1-Carboxymethyl-6-(2,3-dichlorobenzyl)-4-oxo-1,4-dihydroquinoline-3-carboxylic acid]", "values": [
      {"measurement": "IC50", "result": 59, "unit": "nM"}
    ]},
    {"smiles": "Cc1ncsc1CCn1cc(C(=O)O)c(=O)c2cc(Cc3cccc(Cl)c3Cl)ccc21", "note": "[Example 1-29, 6-(2,3-Dichlorobenzyl)-1-[2-(4-methylthiazol-5-yl)ethyl]-4-oxo-1,4-dihydroquinoline-3-carboxylic acid]", "values": [
      {"measurement": "IC50", "result": 240, "unit": "nM"}
    ]},
    {"smiles": "CC(O)Cn1cc(C(=O)O)c(=O)c2cc(Cc3cccc(Cl)c3Cl)ccc21", "note": "(stereo not drawn) [Example 1-30, 6-(2,3-Dichlorobenzyl)-1-(2-hydroxypropyl)-4-oxo-1,4-dihydroquinoline-3-carboxylic acid]", "values": [
      {"measurement": "IC50", "result": 140, "unit": "nM"}
    ]},
    {"smiles": "O=C(O)c1cn(CCO)c2ccc(Cc3cccc(Cl)c3)cc2c1=O", "note": "[Example 1-31]", "values": [
      {"measurement": "IC50", "result": 170, "unit": "nM"}
    ]},
    {"smiles": "CSCCn1cc(C(=O)O)c(=O)c2cc(Cc3cccc(Cl)c3Cl)ccc21", "note": "[Example 1-32, 6-(2,3-Dichlorobenzyl)-1-(2-methylsulfanylethyl)-4-oxo-1,4-dihydroquinoline-3-carboxylic acid]", "values": [
      {"measurement": "IC50", "result": 68, "unit": "nM"}
    ]}
  ]
}
